Assay results from US7173063B1, “Topoisomerase poisons for the treatment of proliferative disorders” (Fred Hutchinson Cancer Research Center, priority 2000, dated 2007).

Target: T1, Topo I (Saccharomyces cerevisiae, UniProt P04786)
T1 construct: yeast strains that are DSB repair defective, with (rad50) or without Topo I (rad50, top1), and a wild type control (wt); endogenous in cells; host or cells: S. cerevisiae A364a background, rad50 (erg6 pdr1 pdr3), compared with rad50 top1
T1 sequence (P04786 1-769): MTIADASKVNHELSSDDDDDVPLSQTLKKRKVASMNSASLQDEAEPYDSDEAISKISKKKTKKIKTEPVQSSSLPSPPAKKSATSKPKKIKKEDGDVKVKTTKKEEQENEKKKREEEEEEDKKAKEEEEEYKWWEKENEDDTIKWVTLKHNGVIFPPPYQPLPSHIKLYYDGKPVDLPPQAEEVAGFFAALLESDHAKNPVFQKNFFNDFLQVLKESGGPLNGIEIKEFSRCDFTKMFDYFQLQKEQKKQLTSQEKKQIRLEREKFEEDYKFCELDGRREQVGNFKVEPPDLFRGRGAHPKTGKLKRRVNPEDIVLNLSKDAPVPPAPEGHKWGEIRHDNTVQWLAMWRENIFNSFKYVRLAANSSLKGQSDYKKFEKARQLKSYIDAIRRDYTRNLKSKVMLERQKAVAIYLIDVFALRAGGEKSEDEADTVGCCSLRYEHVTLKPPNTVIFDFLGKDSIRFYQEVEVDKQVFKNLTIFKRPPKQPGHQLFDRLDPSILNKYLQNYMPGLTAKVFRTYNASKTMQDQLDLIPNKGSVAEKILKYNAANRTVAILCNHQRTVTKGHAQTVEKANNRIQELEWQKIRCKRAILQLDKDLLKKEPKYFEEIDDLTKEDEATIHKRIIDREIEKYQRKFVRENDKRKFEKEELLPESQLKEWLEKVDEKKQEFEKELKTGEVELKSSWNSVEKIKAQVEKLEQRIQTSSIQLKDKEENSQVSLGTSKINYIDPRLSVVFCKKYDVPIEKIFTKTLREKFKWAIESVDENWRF
Assay: Yeast toxicity in strains with or without Topo I (rad50 vs rad50 top1)
Assay type: cell-based
Settings: rad50 top1 vs rad50 strain
Text: The strains are derived from the A364a genetic background, with the exception of BY4705, which is derived from the S288C background. Gene disruptions were generated by PCR fragment directed replacement (Baudin, et al., Nucleic Acids Research 21: 3329–30 (1993), Guldener, et al., Nucleic Acids Research 24: 2519–24 (1996)). Yeast overexpressing topoisomerase II was constructed by a PCR fragment directed promoter replacement of the topoisomerase II promoter with the yeast GPD promoter flanked upstream by the URA3 marker. All strains (except BY4705) bear the pleitropic drug sensitizing mutations erg6, pdr1, and pdr3 (Balzi, et al., Journal of Bioenergetics & Biomembranes 27: 71–6 (1995), Delaveau, et al, Molecular & General Genetics 244: 501–11 (1994), Gaber, et al., Molecular & Cellular Biology 9: 3447–56 (1989), Saunders, et al., Canadian Journal of Genetics & Cytology, 24: 493–503 (1982). Subik, et al, Current Genetics 10: 665–70 (1986)). The haploid yeast strain BY4705 (Brachmann, et al., Yeast 14: 115–32 (1998)) was used in the experiments described in FIG. 5. Plasmids expressing yeast or human topoisomerase I genes under the GAL promoter (Knab, et al., Journal of Biological Chemistry 268: 22322–30 (1993). Knab, et al., Journal of Biological Chemistry 270: 6141–8 (1995)) were transformed into BY4705 using standard procedures.
Yeast toxicity assays were performed essentially as follows: Exponentially growing cultures of the appropriate strains were diluted in synthetic complete media to a concentration of 7.4×10^4 cells/mL, and aliquots (135 μL) were transferred to each well of clear flat-bottomed 96 well plates. Compounds were added in duplicate or triplicate as 15 μL of the appropriate dilution in 5% DMSO. A 15 μL portion of 5% DMSO was added to control wells. Assay plates were incubated at 30° C. for approximately seven generations growth in solvent control wells (as monitored by OD660, typically 21–24 hours), then the OD660 of the cultures was measured in a microplate reader (Bio-Tek). […]

Row | Structure (SMILES) | effect of deletion of the TOP1 gene on toxicity
1 | CC(=O)[C@]1(O)Cc2c(O)c3c(c(O)c2[C@@H](O[C@H]2C[C@H](N)[C@H](O)[C@H](C)O2)C1)C(=O)c1ccccc1C3=O [idarubicin, reference compound] | little effect
2 | O=c1c(Cl)c(Cl)cnn1CCCl [compound IIa] | greatly reduced
3 | O=C(CCl)Nc1ccc(C(=O)N/N=C/c2ccc(Cl)cc2)cc1 [compound Ia] | greatly reduced
